For one data set, the target named is BLK (Homo sapiens (Human), UniProt P51451). Kind of data set: biochemical. The settings on record: 10 μM ATP.
The nature of a further data set: physchem. The settings on record: pH 7.4, aqueous buffer, kinetic from dmso stock.
A further data set concerns the target SRPK1 (Homo sapiens (Human), UniProt Q96SB4). Description: biochemical.
In another data set the target is RET (Homo sapiens (Human), UniProt P07949). Kind of data set: biochemical. The settings on record: 10 μM ATP.
The next data set in a line: in vivo. As to conditions: NRG/NRGS, mouse, ip, 30 mg/kg.
Another data set concerns the target PDGFRβ (Homo sapiens (Human), UniProt P09619). Description: biochemical. The settings on record: 10 μM ATP.
The subject of another data set is Phospho (P)-STAT5. Kind of data set: P-STAT5 AlphaLISA assay in MV4;11 cells. The class given is cell-based. As to conditions: Homo sapiens, read-out: IC50 of STAT5 phosphorylation. (In general: Alpha assays give light when donor and acceptor beads are brought close together.)
Another data set concerns MA9-NRas cells. Kind of data set: NRAS IC50 (MA9-NRas cells). The class given is cell-based. As to conditions: Homo sapiens, read-out: NRAS IC50.
The target of another data set is LCK (Homo sapiens (Human), UniProt P06239). Description: biochemical. The settings on record: 10-dose IC50 mode, 10 μM ATP.
The target in data set [1] is T1, IRAK1 (Homo sapiens (Human), UniProt P51617). Description: Kd kinase binding assay IRAK1.
Another data set deals with CDK7/cyclin H (Homo sapiens (Human), UniProt P50613). Kind of data set: biochemical.
Data set [2] deals with T1, IRAK1. Kind of data set: biochemical.
Data set [3] has as its target Receptor-type tyrosine-protein kinase FLT3 (Homo sapiens, UniProt P36888, ITD). Kind of data set: biochemical.
Another data set deals with P-IRAK4. Kind of data set: Immunoblot of compensatory P-IRAK4 in FLT3-ITD AML cells. As to conditions: 50 nM. The format is cell-based, human.
For a further data set, the target named is IRAK4 (Homo sapiens (Human), UniProt Q9NWZ3). Description: biochemical.
Another data set concerns the target FLT3 (D835Y) (Homo sapiens (Human), UniProt P36888, D835Y). Kind of data set: biochemical.
A further data set deals with FLT3 (Homo sapiens (Human), UniProt P36888). Kind of data set: biochemical.
For the next data set, the system named is FLT3 phosphorylation. Description: Immunoblot of P-FLT3 in MV4;11 cells. The format is cell-based, human. As to conditions: 50 nM, 24 hours. In general terms: A western blot detects proteins with antibodies after separation by electrophoresis.
For another data set, the system named is IRAK4 phosphorylation. Description: Immunoblot of P-IRAK4 in MDSL cells. The settings on record: 24 hours. The format is cell-based, human.
Data set [4] relates to normal cord blood CD34+ cells. Kind of data set: Colony formation of normal cord blood CD34+ cells. The settings on record: 1 μM, 10 days.
A further data set deals with MDSL cells. Kind of data set: CellTiter-Glo growth of MDSL cells. The settings on record: 72 hours, cell-titer glow. The format is cell-based, human. (In ATP-based viability assays light output follows the ATP content of the culture.)
For data set [5] the following is noted: NRG/NRGS, mouse, in vivo, ip, 30 mg/kg.
The conditions of data set [6]: PAMPA.
For data set [7] the following is noted: pH 7.4.
[8] abbreviates: MV4;11 cells, 5 hours, AlphaLISA.

Converted amounts (≈) assume the structure as drawn. Where two headings read alike, the source gives them in different places.

We go through 13 compounds from US11254667B2 (priority 2016, dated 2022).

Sequence of PDGFRβ (P09619 33-1106 limits assumed): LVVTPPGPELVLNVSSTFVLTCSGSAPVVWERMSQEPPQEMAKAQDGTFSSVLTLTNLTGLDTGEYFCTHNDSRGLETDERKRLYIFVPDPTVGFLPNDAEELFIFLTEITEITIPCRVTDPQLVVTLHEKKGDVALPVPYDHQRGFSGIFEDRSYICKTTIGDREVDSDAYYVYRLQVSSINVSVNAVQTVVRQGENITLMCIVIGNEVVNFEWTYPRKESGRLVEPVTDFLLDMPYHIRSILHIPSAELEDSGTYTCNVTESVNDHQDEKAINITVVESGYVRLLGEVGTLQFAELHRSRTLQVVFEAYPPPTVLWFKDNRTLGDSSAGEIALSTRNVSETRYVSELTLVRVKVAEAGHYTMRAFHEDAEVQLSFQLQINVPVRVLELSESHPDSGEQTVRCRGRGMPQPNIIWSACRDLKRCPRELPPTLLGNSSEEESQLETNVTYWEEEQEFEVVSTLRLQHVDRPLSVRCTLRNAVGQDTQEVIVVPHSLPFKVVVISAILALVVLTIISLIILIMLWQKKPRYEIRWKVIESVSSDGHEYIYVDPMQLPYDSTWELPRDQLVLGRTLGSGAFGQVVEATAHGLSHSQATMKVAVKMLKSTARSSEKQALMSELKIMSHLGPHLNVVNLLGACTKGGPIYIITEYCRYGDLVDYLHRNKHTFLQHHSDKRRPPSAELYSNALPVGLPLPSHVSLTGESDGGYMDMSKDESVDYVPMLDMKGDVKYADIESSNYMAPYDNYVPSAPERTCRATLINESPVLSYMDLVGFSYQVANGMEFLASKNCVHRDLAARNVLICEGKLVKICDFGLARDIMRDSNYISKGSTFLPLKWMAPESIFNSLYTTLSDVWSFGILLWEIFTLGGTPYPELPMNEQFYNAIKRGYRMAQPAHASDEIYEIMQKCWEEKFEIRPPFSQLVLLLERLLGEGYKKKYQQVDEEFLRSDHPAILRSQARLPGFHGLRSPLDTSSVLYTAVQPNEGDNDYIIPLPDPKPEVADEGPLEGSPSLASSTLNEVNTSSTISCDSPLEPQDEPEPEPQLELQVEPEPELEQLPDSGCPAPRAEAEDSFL
Sequence of RET (P07949 29-1114 limits assumed): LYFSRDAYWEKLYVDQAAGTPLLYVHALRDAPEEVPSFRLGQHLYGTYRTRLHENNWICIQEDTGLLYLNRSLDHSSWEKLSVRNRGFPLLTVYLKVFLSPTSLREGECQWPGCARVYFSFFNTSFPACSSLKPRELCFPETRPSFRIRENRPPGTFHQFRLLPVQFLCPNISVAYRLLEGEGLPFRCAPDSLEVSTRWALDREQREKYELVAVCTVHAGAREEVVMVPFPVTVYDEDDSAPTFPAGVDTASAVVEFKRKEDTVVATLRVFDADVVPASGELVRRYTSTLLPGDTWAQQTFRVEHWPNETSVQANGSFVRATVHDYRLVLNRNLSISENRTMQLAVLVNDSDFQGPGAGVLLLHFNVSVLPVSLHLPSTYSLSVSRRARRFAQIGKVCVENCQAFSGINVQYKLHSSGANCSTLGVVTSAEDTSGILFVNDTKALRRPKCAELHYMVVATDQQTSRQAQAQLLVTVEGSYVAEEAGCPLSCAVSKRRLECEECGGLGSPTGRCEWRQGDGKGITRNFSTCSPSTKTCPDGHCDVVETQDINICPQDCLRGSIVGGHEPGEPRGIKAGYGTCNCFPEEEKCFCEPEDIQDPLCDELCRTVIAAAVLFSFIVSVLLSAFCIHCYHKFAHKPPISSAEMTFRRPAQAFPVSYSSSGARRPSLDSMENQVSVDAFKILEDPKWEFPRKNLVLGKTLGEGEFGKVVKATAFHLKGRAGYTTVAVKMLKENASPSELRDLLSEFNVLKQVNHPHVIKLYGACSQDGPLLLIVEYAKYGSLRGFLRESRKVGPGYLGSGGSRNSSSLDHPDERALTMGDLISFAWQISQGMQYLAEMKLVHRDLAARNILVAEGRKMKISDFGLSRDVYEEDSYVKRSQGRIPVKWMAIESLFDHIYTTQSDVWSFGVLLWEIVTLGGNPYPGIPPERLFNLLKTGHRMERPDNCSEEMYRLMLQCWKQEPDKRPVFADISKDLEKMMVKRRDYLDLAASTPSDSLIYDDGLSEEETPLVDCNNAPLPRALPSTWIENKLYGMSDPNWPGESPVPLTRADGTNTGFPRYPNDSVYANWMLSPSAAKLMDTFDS

With `Clc1ccc2ncc(-c3cccc(NC4CCNCC4)n3)n2c1` [Compound I-2, 6-(6-chloroimidazo[1,2-a]pyridin-3-yl)-N-(piperidin-4-yl)pyridin-2-amine], the IC50 was […] against BLK (IC50 BLK); […] against BLK (IC50 BLK, 10-dose IC50 mode); over 10 µM at SRPK1; 0.0006 µM at RET (IC50 RET); 1.28 µM against RET (IC50 RET, 10-dose IC50 mode); 0.00357 µM on PDGFRβ (IC50 PDGFRb, 10-dose IC50 mode). This compound displayed an IC50 at PDGFRβ (IC50 PDGFRβ) of 0.00419 µM. The same compound showed a solubility in the data set “physchem” of over 0.048 mg/mL. This compound also returned a solubility (kinetic) in the data set “physchem” of over 48 µM. Besides, where the note is “rat”, the Stability is given as […]. The compound also registered an AUC(0-inf) in the data set “in vivo” of 4.63 µg·h/mL. The compound further yielded a Cmax in the data set “in vivo” of 1.71 µg/mL. Besides, the time to peak (Tmax) in the data set “in vivo” amounted to […]. The half-life in “in vivo” was 198 min.
`Clc1ccc2ncc(-c3cccc(NC4CNC4)n3)n2c1` [Compound I-15, N-(azetidin-3-yl)-6-(6-chloroimidazo[1,2-a]pyridin-3-yl)pyridin-2-amine] had a Stability of 13 min. Further, the solubility in “physchem” was over 0.044 mg/mL. Besides, the IC50 in the data set with Phospho (P)-STAT5 (setting [8]) was 0.0017 µM. In the data set on MA9-NRas cells, the IC50 is 16.6 µM.
As to `Clc1ccc2ncc(-c3cccc(NC4CCCNC4)n3)n2c1` (centres unmarked) [Compound I-17, 6-(6-chloroimidazo[1,2-a]pyridin-3-yl)-N-(piperidin-3-yl)pyridin-2-amine], the IC50 stood at 0.167 µM against LCK; 0.0407 µM at BLK (IC50 BLK, 10-dose IC50 mode); 7.67 µM against SRPK1; 0.0105 µM at RET (IC50 RET, 10-dose IC50 mode); 0.588 µM against CDK7/cyclin H; 0.067 µM against PDGFRβ (IC50 PDGFRb, 10-dose IC50 mode). Besides, the IC50 at IRAK1 [2] (read-out: IC50 IRAK1) worked out at 1.48 µM. Further, the Kd at IRAK1 [1] was 0.15 µM. The solubility in “physchem” is over 0.048 mg/mL. Further, the Stability (rat) is on record as over 30.0 min.
On to `COc1cc2ncc(-c3cccc(NC4CCNC4)n3)n2cc1-c1cn[nH]c1` (centres unmarked) [Compound I-20, 6-(7-methoxy-6-(1H-pyrazol-4-yl)imidazo[1,2-a]pyridin-3-yl)-N-(pyrrolidin-3-yl)pyridin-2-amine], for which the IC50 against LCK was under 0.000508 µM; in data set [3], under 0.000508 µM; at BLK (IC50 BLK, 10-dose IC50 mode) it was under 0.000508 µM; in the data set on Phospho (P)-STAT5 (MV4-11, 5 h), 0.0036 µM; at SRPK1 it was over 10 µM; on RET (IC50 RET, 10-dose IC50 mode), under 0.000508 µM. In addition, the 50% inhibitory concentration (IC50) at CDK7/cyclin H was 0.116 µM; in the data set with MA9-NRas cells, 33.2 µM; against IRAK4, under 0.000508 µM; against FLT3 (D835Y) it was under 0.000508 µM; on PDGFRβ (IC50 PDGFRb, 10-dose IC50 mode), 0.00125 µM; against FLT3 it was under 0.000508 µM. The same compound showed an IC50 on IRAK1 [2] (IC50 IRAK1, 10-dose IC50 mode, 10 μM ATP) of 0.00534 µM. Also, the “compensatory phosphorylation of IRAK4 (immunoblot)” value in the data set with P-IRAK4 is given as “did not result in compensatory phosphorylation of IRAK4”. The compound also yielded a solubility in the data set “physchem” of 0.0045 mg/mL (≈ 12 µM). The same compound displayed a Stability (rat) of 11.6 min. The “FLT3 phosphorylation (immunoblot)” value with FLT3 phosphorylation was “inhibited FLT3 phosphorylation comparably to AC220”.
In the case of `COc1cc2ncc(-c3cccc(NC4CCNC4)n3)n2cc1-c1cccnc1` (centres unmarked) [Compound I-22, 6-(7-methoxy-6-(pyridin-3-yl)imidazo[1,2-a]pyridin-3-yl)-N-(pyrrolidin-3-yl)pyridin-2-amine], in “physchem”, the solubility was found to be 0.029 mg/mL (≈ 75 µM) and the solubility (kinetic) came out at 29 µM (≈ 11.2 µg/mL). Also, in “in vivo”, the total exposure AUC(0-inf) came out at 4.85 µg·h/mL, the Cmax stood at 1.54 µg/mL and the Tmax is 30 min.
Regarding `COc1cc2ncc(-c3cccc(NC4CCNC4)n3)n2cc1-c1cnn(C)c1` (centres unmarked) [Compound I-24, 6-(7-methoxy-6-(1-methyl-1H-pyrazol-4-yl)imidazo[1,2-a]pyridin-3-yl)-N-(pyrrolidin-3-yl)pyridin-2-amine], the “IRAK4 phosphorylation (immunoblot)” value in the data set on IRAK4 phosphorylation is on record as “effectively inhibited pIRAK4”. Moreover, binding on IRAK1 [1] was characterised by a dissociation constant (Kd) of 0.0029 µM. Further, the “colony formation of normal CD34+ cells” value in data set [4] was “inhibited colony formation”. In addition, the “MDSL growth inhibition compared to IRAK-Inh” value in the data set with MDSL cells is recorded as “increased ability to inhibit MDSL growth”. For the same compound, the AUCinf. in [5] is on record as 6,800 hr*ng/mL. For the same compound, in the data set “in vivo”, the AUC(0-inf) worked out at 6.8 µg·h/mL, the concentration peaked (Cmax) at 3.57 µg/mL and the time of peak concentration (Tmax) was 4.98 min. For the same compound, in the data set on FLT3 phosphorylation, the “FLT3 phosphorylation (immunoblot)” value was “inhibited FLT3 phosphorylation comparably to AC220”.
As for `COc1cc(Cl)cn2c(-c3cccc(NC4CNC4)n3)cnc12` [Compound I-42, N-(azetidin-3-yl)-6-(6-chloro-8-methoxyimidazo[1,2-a]pyridin-3-yl)pyridin-2-amine], the Stability was over 30 min. This compound registered a solubility in “physchem” of over 0.049 mg/mL. The IC50 in the data set on MA9-NRas cells stood at 20.9 µM.
As to `c1cc(N[C@@H]2CCNC2)nc(-c2cnc3ccc(-c4cn[nH]c4)cn23)c1` [Compound I-43], the Stability was found to be 5.7 min. Further, in “physchem”, the solubility came to 0.0401 mg/mL (≈ 116 µM). Besides, in the data set with Phospho (P)-STAT5 (setting [8]), the IC50 is 0.0066 µM.
`Cn1cc(-c2ccc3ncc(-c4cccc(NC5CNC5)n4)n3c2)cn1` [Compound I-46] gave a solubility in “physchem” of 0.0431 mg/mL (≈ 125 µM). Further, the Stability (rat) is on record as over 30.0 min. Further, the concentration for half-maximal inhibition (IC50) in the data set with MA9-NRas cells was 16.6 µM.
Take `Fc1cc(F)c(-c2cnc3ccc(Cl)cn23)nc1NC1CNC1` [Compound I-47]: the solubility in “physchem” is over 0.05 mg/mL. Under “rat”, this compound returned a Stability of over 30.0 min. In the data set on MA9-NRas cells, the half-inhibitory concentration (IC50) was determined as 1.88 µM.
For the compound `Fc1cc(F)c(-c2cnc3ccc(Cl)cn23)nc1NC1CNC1` [Compound I-56, N-(azetidin-3-yl)-6-(6-chloroimidazo[1,2-a]pyridin-3-yl)-3,5-difluoropyridin-2-amine], the Permeability in data set [6] was 11641 nm/s. In [7], this compound gave a solubility of over 0.05 mg/mL.
For `CC1(COc2ccc3c(c2)ncn3-c2ccc3cccc(N4CCC(N)CC4)c3n2)COC1` [Crenolinib, reference compound], the IC50 at BLK (10-dose IC50 mode, read-out: IC50 BLK) was 0.0207 µM; at SRPK1 (10-dose IC50 mode, 10 μM ATP, read-out: IC50 SRPK1), 21.7 µM; on RET (10-dose IC50 mode, read-out: IC50 RET) it was 0.0138 µM.
On to `CC(C)(C)c1cc(NC(=O)Nc2ccc(-c3cn4c(n3)sc3cc(OCCN5CCOCC5)ccc34)cc2)no1` [quizartinib, reference compound], for which the IC50 in the data set on Phospho (P)-STAT5 (MV4-11, 5 h) came out at 0.0117 µM.

As usually defined, the IC50 is the concentration that gives 50% inhibition. The term solubility denotes the concentration that dissolves in the medium under given conditions. Lower therefore signals a poorly soluble substance. Broadly, the solubility (kinetic) is solubility judged after dilution from a stock solution rather than from solid. As a reminder, the AUC(0-inf) is the area under the concentration-time curve extrapolated to infinity. The low end stands for less exposure, the high end for more exposure. What is called Cmax is the highest concentration seen after dosing. What is called Tmax is the time at which the peak concentration occurs. One may read the half-life as how long it takes for the measured level to halve. High values mean slow loss, low ones fast loss. As a reminder, the Kd is the concentration at which binding is half-saturated. Low readings indicate higher affinity, high ones lower affinity.
